From patent publication US20160368870A1, “OLEFIN SUBSTITUTED OXINDOLES HAVING AMPK ACTIVITY” (BOEHRINGER INGELHEIM INTERNATIONAL GMBH, priority 2013, published 2016)

Biological target: T1, AMPK beta 1 (Homo sapiens, UniProt Q13131+Q9Y478)
T1 construct: in-cell-ELISA for phospho-ACC (Acetyl-CoA carboxylase 1) in HepG2 cells (liver); endogenous in cells; host or cells: HepG2
Assay: in-cell-ELISA for phospho-ACC, Activity beta 1
Format: cell-based
Settings: 2 h, serum free DMEM, percentage activation over vehicle control, cell line not given (HepG2 or C2C12 myotubes)
Protocol: (§1) Activation of AMPK by various compounds were measured using in-cell-ELISA for phospho-ACC (Acetyl-CoA carboxylase 1) in HepG2 cells (liver) and fully differentiated myotubes (C2C12 cells) grown in 96 well plate. Cells were treated with 1 μM of the molecule for 2 h in serum free DMEM media. After methanol fixation, cells were blocked with BSA followed by addition of anti-phospho ACC antibody (Cell Signaling) and HRP conjugated secondary antibody. Absorbance values taken at 450 nm and were normalized with total DNA (Hoechest stain). Results were expressed as percentage activation over vehicle control.

T1 sequence (Q9Y478 whole entry): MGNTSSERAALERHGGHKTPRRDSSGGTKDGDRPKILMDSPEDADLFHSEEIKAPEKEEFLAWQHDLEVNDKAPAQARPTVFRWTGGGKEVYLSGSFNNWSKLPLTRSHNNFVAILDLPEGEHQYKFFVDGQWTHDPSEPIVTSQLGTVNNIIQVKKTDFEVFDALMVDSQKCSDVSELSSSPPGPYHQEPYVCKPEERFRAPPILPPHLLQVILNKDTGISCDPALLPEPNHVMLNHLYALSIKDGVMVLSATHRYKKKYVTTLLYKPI
T1 sequence (Q13131 whole entry): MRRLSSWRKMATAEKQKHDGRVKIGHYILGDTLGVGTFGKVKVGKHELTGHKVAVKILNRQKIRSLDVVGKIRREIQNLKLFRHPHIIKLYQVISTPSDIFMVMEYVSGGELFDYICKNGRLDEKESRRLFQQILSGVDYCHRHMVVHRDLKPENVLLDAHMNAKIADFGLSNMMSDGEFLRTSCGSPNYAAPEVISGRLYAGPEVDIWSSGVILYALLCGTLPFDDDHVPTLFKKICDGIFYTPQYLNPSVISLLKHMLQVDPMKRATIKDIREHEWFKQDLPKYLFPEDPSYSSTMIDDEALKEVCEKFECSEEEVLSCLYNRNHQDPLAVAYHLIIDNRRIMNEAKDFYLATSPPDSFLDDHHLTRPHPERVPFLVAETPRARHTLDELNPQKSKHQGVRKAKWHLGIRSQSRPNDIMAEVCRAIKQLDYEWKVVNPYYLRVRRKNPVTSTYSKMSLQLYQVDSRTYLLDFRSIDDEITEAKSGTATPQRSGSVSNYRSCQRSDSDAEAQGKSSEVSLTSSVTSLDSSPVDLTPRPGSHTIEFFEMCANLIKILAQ
T1 sequence (P54619 whole entry partner): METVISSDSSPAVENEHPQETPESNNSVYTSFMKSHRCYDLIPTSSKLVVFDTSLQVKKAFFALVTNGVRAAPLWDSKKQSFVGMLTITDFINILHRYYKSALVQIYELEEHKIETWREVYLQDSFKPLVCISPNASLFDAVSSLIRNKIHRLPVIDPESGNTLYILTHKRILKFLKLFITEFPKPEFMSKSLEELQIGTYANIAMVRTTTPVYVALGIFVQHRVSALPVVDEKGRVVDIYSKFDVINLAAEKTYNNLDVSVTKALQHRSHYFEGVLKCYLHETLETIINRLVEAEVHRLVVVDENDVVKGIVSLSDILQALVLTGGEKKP

activation at 1 µM [%] | SMILES | Activity beta 1 (at 1 uM)
> 40 | Cc1ccc(C=C2C(=O)Nc3cc(Cl)c(-c4ccc(-c5ccccc5O)cc4)cc32)cc1C(=O)O [Example 9] | 
20 to 40 | Cn1c(C=C2C(=O)Nc3cc(Cl)c(-c4ccc(-c5ccccc5O)cc4)cc32)ccc1C(=O)O [Example 14] | 
> 40 | Cc1ccc(C=C2C(=O)Nc3cc(F)c(-c4ccc(-c5ccccc5O)cc4)cc32)cc1CC(=O)O [Example 3] | 
< 20 | Cn1cc(C=C2C(=O)Nc3cc(Cl)c(-c4ccc(-c5ccccc5)cc4)cc32)cc1C(=O)O [Example 23] | 
< 20 | Cn1cc(CC(=O)O)cc1C=C1C(=O)Nc2cc(Cl)c(-c3ccc(-c4ccccc4O)cc3)cc21 [Example 17] | 
> 40 | COc1ccc(C=C2C(=O)Nc3cc(Cl)c(-c4ccc(-c5ccccc5O)cc4)cc32)cc1CC(=O)O [Example 11] | 
< 20 | Cn1ccc(C=C2C(=O)N(CC(=O)O)c3cc(Cl)c(-c4ccc(-c5ccccc5O)cc4)cc32)c1 (racemic) [Example 25, {(3E/32)-6-Chloro-5-(2′-hydroxybiphenyl-4-yl)-3-[(1-methyl-1H-pyrrol-3-yl)methylidene]-2-oxo-2,3-dihydro-1H-indol-1-yl}acetic acid] | 
> 40 | Cc1ccc(C=C2C(=O)Nc3cc(F)c(-c4ccc(-c5ccc(-n6cncn6)cc5)cc4)cc32)cc1C(=O)O [Example 65] | 
< 20 | Cc1ccc(C=C2C(=O)Nc3cc(F)c(-c4cccc(-c5ccccc5O)c4)cc32)cc1CC(=O)O (single isomer, unassigned) [Example 30, (5-{(E/Z)-[6-Fluoro-5-(2′-hydroxybiphenyl-3-yl)-2-oxo-1,2-dihydro-3H-indol-3-ylidene]methyl}-2-methylphenyl)acetic acid] | 
< 20 | CN1C(=O)C(=Cc2cc(C(=O)O)n(C)c2)c2cc(-c3ccc(-c4ccccc4O)cc3)c(Cl)cc21 [Example 29] | 
> 40 | Cc1ccc(C=C2C(=O)Nc3cc(F)c(-c4ccc(-c5ccc(-n6ccnn6)cc5)cc4)cc32)cc1C(=O)O [Example 64] | 
20 to 40 | Cc1ccc(C=C2C(=O)Nc3cc(F)c(-c4ccc(-c5ccccc5O)cc4)cc32)cc1C(=O)O [Example 2] | 
< 20 | Cn1cc(C=C2C(=O)N(CCO)c3cc(Cl)c(-c4ccc(-c5ccccc5O)cc4)cc32)cc1C(=O)O [Example 26] | 
< 20 | Cc1ccc(C=C2C(=O)Nc3cc(Cl)c(-c4ccc(-c5ccccc5O)nc4)cc32)cc1CC(=O)O [Example 33] | 
20 to 40 | COc1ccc(C=C2C(=O)Nc3cc(Cl)c(-c4ccc(-c5ccccc5O)cc4)nc32)cc1C(=O)O [Example 38] | 
> 40 | Cn1c(C=C2C(=O)Nc3cc(Cl)c(-c4ccc(-c5ccc(-n6cncn6)cc5)cc4)cc32)ccc1C(=O)O [Example 69] | 
< 20 | Cc1ccc(C=C2C(=O)Nc3cc(F)c(-c4ccc(-c5ccncc5)cc4)cc32)cc1CC(=O)O [Example 44] | 
> 40 | COc1ccc(C=C2C(=O)Nc3cc(Cl)c(-c4ccc(-c5ccc(-n6ccnn6)cc5)cc4)cc32)cc1CC(=O)O [Example 56] | 
> 40 | COc1ccc(C=C2C(=O)Nc3cc(Cl)c(-c4ccc(-c5ccccc5O)cc4)nc32)cc1CC(=O)O [Example 37] | 
> 40 | Cc1ccc(C=C2C(=O)Nc3cc(Cl)c(-c4ccc(-c5ccccc5O)cc4)cc32)cc1CC(=O)O (racemic) [Example 1, (5-{(E/Z)-[6-Chloro-5-(2′-hydroxybiphenyl-4-yl)-2-oxo-1,2-dihydro-3H-indol-3-ylidene]methyl}-2-methylphenyl)acetic acid] | 
< 20 | Cc1ccc(C=C2C(=O)Nc3cc(Cl)c(-c4ccc(-c5ccccc5O)cn4)cc32)cc1CC(=O)O [Example 31] | 
< 20 | C/C(=C1/C(=O)Nc2cc(F)c(-c3ccc(-c4ccccc4O)cc3)cc21)c1cccc(CC(=O)N2CCCC2)c1 [Example 24, (3Z)-6-Fluoro-5-(2′-hydroxybiphenyl-4-yl)-3-(1-{3-[2-oxo-2-(pyrrolidin-1-yl)ethyl]phenyl}ethylidene)-1,3-dihydro-2H-indol-2-one] | 
> 40 | O=C(O)Cc1ccc(C=C2C(=O)Nc3cc(Cl)c(-c4ccc(-c5ccc(-n6cncn6)cc5)cc4)cc32)cc1 [Example 53] | 
20 to 40 | Cc1ccc(C=C2C(=O)Nc3cc(Cl)c(-c4ccc(-c5ccc(-n6cncn6)cc5)cc4)cc32)cc1CC(=O)O [Example 50] | 
> 40 | COc1ccc(C=C2C(=O)Nc3cc(Cl)c(-c4ccc(-c5ccc(-n6cccn6)cc5)cc4)cc32)cc1CC(=O)O [Example 49] | 
20 to 40 | Cc1ccc(C=C2C(=O)Nc3cc(Cl)c(-c4ccc(-c5ccccc5O)cc4)nc32)cc1CC(=O)O [Example 36] | 
> 40 | Cc1ccc(C=C2C(=O)Nc3cc(F)c(-c4ccc(-c5ccc(-n6cccn6)cc5)cc4)cc32)cc1C(=O)O [Example 61] | 

activation at 1 µM [%] | SMILES | Activity beta 1 (at 1 uM)
< 20 | O=C1Nc2cc(Cl)c(-c3ccc(-c4ccccc4O)cc3)cc2C1=Cc1csc(C(=O)O)n1 [Example 22] | 
< 20 | O=C(O)COc1cccc(C=C2C(=O)Nc3cc(Cl)c(-c4ccc(-c5ccccc5O)cc4)cc32)c1 [Example 10] | 
> 40 | O=C(O)Cc1cccc(C=C2C(=O)Nc3cc(Cl)c(-c4ccc(-c5ccc(-n6cncn6)cc5)cc4)cc32)c1 [Example 52] | 
20 to 40 | Cc1ccc(C=C2C(=O)Nc3cc(Cl)c(-c4ccc(-c5ccncc5)cc4)cc32)cc1CC(=O)O [Example 39] | 
< 20 | Cn1cc(C=C2C(=O)Nc3cc(F)c(-c4ccc(-c5ccncc5)cc4)cc32)cc1C(=O)O [Example 43] | 
< 20 | Cc1ccc(C=C2C(=O)Nc3cc(Cl)c(-c4ccc(-c5ccccc5O)cc4)cc32)cc1 [Example 18] | 
> 40 | Cn1cc(C=C2C(=O)Nc3cc(Cl)c(-c4ccc(-c5ccccc5O)cc4)cc32)cc1C(=O)O [Example 13] | 
< 20 | O=C1Nc2cc(Cl)c(-c3ccc(-c4ccccc4O)cc3)cc2C1=Cc1c[nH]c(C(=O)O)c1 [Example 16] | 
< 20 | O=C(O)Cc1cc(C=C2C(=O)Nc3cc(Cl)c(-c4ccc(-c5ccccc5O)cc4)cc32)ccc1O (racemic) [Example 12, (5-{(E/Z)-[6-Chloro-5-(2′-hydroxybiphenyl-4-yl)-2-oxo-1,2-dihydro-3H-indol-3-ylidene]methyl}-2-hydroxyphenyl)acetic acid] | 
< 20 | COc1ccc(C=C2C(=O)Nc3cc(Cl)c(-c4ncc(-c5ccccc5O)cn4)cc32)cc1CC(=O)O [Example 46] | 
< 20 | CC(=C1C(=O)Nc2cc(F)c(-c3ccc(-c4ccccc4O)cc3)cc21)c1cccc(CC(=O)O)c1 [Example 8] | 
< 20 | COc1ccc(C=C2C(=O)Nc3cc(Cl)c(-c4ccc(-c5ccccc5O)cn4)cc32)cc1CC(=O)O [Example 34] | 
> 40 | COc1ccc(C=C2C(=O)Nc3cc(F)c(-c4ccc(-c5ccc(-n6cncn6)cc5)cc4)cc32)cc1CC(=O)O [Example 59] | 
< 20 | O=C1Nc2cc(Cl)c(-c3ccc(-c4ccccc4O)cc3)cc2C1=Cc1ccc(C(=O)O)[nH]1 [Example 15] | 
< 20 | COc1ccc(C=C2C(=O)Nc3cc(Cl)c(-c4ccc(-c5ccc(-n6ccnc6C)cc5)cc4)cc32)cc1CC(=O)O [Example 66] | 
< 20 | Cc1ccc(C=C2C(=O)Nc3cc(Cl)c(-c4ncc(-c5ccccc5O)cn4)cc32)cc1CC(=O)O [Example 45] | 
> 40 | COc1ccc(C=C2C(=O)Nc3cc(F)c(-c4ccc(-c5ccccc5O)cc4)cc32)cc1CC(=O)O [Example 7] | 
< 20 | O=C(O)Cc1cccc(C=C2C(=O)Nc3cc(Cl)c(-c4ccc(-c5ccccc5O)nc4)cc32)c1 [Example 35] | 
< 20 | O=C(O)Cc1ccc(C=C2C(=O)Nc3cc(F)c(-c4ccc(-c5ccccc5O)cc4)cc32)cc1 [Example 4] | 
< 20 | Cn1nc(/C=C2\C(=O)Nc3cc(Cl)c(-c4ccc(-c5ccccc5O)cc4)cc32)cc1C(=O)O [Example 20, 3-{(Z)-[6-chloro-5-(2′-hydroxybiphenyl-4-yl)-2-oxo-1,2-dihydro-3H-indol-3-ylidene]methyl}-1-methyl-1H-pyrazole-5-carboxylic acid] | 
> 40 | COc1ccc(C=C2C(=O)Nc3cc(Cl)c(-c4ccc(-c5ccc(-n6cncn6)cc5)c(F)c4)cc32)cc1CC(=O)O [Example 60] | 
> 40 | O=C(O)Cc1cccc(C=C2C(=O)Nc3cc(F)c(-c4ccc(-c5ccccc5O)cc4)cc32)c1 [Example 5] | 
> 40 | Cn1cc(C=C2C(=O)Nc3cc(Cl)c(-c4ccc(-c5ccc(-n6cncn6)cc5)cc4)cc32)cc1C(=O)O [Example 63] | 
> 40 | Cn1ccc(C=C2C(=O)Nc3cc(Cl)c(-c4ccc(-c5ccccc5O)cc4)cc32)c1 [Example 19] | 
< 20 | Cc1ccc(C=C2C(=O)Nc3cc(Cl)c(-c4ccc(-c5ccccc5O)cn4)cc32)cc1C(=O)O [Example 32] | 
 | Cn1nc(C=C2C(=O)Nc3cc(Cl)c(-c4ccc(-c5ccccc5O)cc4)cc32)cc1C(=O)[O-].[Na+] (mixture of isomers) [Example 21, Sodium 3-{(E/Z)-[6-chloro-5-(2′-hydroxybiphenyl-4-yl)-2-oxo-1,2-dihydro-3H-indol-3-ylidene]methyl}-1-methyl-1H-pyrazole-5-carboxylate] | * (* <20)

Biological target: T2, AMPK beta 2 (Mus musculus, UniProt Q6PAM0+Q8BRK8)
T2 construct: fully differentiated myotubes (C2C12 cells) grown in 96 well plate; endogenous in cells; host or cells: C2C12 myotubes
Assay: in-cell-ELISA for phospho-ACC, Activity beta 2
Format: cell-based
Settings: 2 h, serum free DMEM, percentage activation over vehicle control, cell line not given (HepG2 or C2C12 myotubes)
Protocol: as §1

T2 sequence (Q6PAM0 whole entry): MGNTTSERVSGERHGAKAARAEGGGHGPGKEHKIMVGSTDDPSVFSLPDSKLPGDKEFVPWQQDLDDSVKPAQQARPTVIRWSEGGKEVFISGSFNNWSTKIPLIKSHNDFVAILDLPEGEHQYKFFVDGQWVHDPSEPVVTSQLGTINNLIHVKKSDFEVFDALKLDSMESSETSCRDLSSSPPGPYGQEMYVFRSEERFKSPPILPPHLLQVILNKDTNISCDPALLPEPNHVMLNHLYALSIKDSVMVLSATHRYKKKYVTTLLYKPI
T2 sequence (Q8BRK8 whole entry): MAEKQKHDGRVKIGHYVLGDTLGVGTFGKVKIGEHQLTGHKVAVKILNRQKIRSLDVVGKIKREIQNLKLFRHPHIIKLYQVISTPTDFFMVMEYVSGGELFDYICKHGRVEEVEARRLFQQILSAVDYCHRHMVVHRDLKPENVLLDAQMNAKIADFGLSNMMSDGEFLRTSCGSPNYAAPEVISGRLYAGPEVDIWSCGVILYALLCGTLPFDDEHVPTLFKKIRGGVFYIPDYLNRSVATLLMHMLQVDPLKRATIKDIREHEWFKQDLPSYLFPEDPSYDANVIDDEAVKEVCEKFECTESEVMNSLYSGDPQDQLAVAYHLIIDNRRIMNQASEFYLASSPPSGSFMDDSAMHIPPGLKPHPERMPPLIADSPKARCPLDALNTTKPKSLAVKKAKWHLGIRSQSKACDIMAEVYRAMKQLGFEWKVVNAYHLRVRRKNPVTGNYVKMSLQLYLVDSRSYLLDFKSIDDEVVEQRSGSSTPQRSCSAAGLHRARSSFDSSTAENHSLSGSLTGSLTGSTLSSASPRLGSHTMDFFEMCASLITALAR
T2 sequence (O54950 whole entry partner): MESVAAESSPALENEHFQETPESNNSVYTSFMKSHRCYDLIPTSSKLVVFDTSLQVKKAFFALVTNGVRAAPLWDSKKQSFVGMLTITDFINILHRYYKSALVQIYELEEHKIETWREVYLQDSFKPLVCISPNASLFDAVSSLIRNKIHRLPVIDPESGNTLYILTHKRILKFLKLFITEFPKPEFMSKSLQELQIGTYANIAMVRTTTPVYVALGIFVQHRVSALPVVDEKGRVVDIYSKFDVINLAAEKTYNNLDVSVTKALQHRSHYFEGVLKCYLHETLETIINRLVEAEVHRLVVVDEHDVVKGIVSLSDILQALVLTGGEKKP

Activity beta 2 (at 1 uM) | SMILES
*** (*** >40) | COc1ccc(C=C2C(=O)Nc3cc(Cl)c(-c4ccc(-c5ccccc5O)cc4)cc32)cc1CC(=O)O [Example 11]
*** (*** >40) | COc1ccc(C=C2C(=O)Nc3cc(Cl)c(-c4ccc(-c5ccc(-n6ccnn6)cc5)cc4)cc32)cc1CC(=O)O [Example 56]
*** (*** >40) | O=C(O)Cc1ccc(C=C2C(=O)Nc3cc(Cl)c(-c4ccc(-c5ccc(-n6cncn6)cc5)cc4)cc32)cc1 [Example 53]
*** (*** >40) | Cn1cc(C=C2C(=O)Nc3cc(Cl)c(-c4ccc(-c5ccccc5O)cc4)cc32)cc1C(=O)O [Example 13]
